Assay results: patent US7323541B2, “Polypeptide DNA thereof and use of the same” (Takeda Pharmaceutical Company Limited, priority 2001, dated 2008)
Changes are numbered by the printed parent chain. Where no end group is shown, it is not given here.

What was measured:
[1] = target: T1, TGR23-1 expressing CHO cells (Homo sapiens, UniProt Q6W5P4); assay: Enhancing activity of arachidonic acid metabolite release; assay type: cell-based
T1 construct: the clones having the cDNA of TGR23-1, which is contained in pTB2173, were selected; expressed in transfected cells; host or cells: hamster CHO/dhfr- cells, vector pAKKO-111H (pAKKO-TGR23-1), clones No. 49 and No. 52
T1 sequence (Q6W5P4 1-371): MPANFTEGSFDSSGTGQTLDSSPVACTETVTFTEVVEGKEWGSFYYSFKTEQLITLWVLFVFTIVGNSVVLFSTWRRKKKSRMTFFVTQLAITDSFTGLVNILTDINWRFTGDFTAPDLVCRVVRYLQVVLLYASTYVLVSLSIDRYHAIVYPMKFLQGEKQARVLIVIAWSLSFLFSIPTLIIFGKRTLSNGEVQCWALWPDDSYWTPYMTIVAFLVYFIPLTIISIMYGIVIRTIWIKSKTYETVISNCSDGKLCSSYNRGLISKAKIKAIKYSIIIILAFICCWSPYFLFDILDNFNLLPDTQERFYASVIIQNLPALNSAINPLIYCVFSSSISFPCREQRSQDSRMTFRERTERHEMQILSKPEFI

[2] = target: T2, TGR23-2 expressing CHO cells (Homo sapiens, UniProt Q6W5P4, N107I/Q344R); assay: as above; assay type: cell-based
T2 construct: the clones having the cDNA of TGR23-2, which is contained in pTB2174, were selected; expressed in transfected cells; host or cells: hamster CHO/dhfr- cells, vector pAKKO-111H (pAKKO-TGR23-2)
T2 sequence (Q6W5P4 1-371 N107I/Q344R): T1 sequence (Q6W5P4 1-371) with N107I, Q344R
Description: The CHO/TGR23-2 cells prepared in Example 1 and selected in Example 2 were plated on 24-well plate at 5×10^4 cells/well and cultured for 24 hours. After removing the medium, αMEM medium (pH7.4) supplemented with 0.5 μCi/ml [^3H] arachidonic acid, 10% dialyzed FBS, 20 mM HEPES and 0.5% BSA was added to the cells at 500 μl/well. Subsequently, the cells were incubated for 16 hours in the incubator. After the culture medium containing [^3H] arachidonic acid was discarded, 500 μl/well of αMEM medium (pH7.4) supplemented with 20 mM HEPES and 0.5% BSA were added, and the cells were incubated for 4 hours in the incubator. […] Three milliliters of liquid scintilator were added to the supernatant described above to measure the radioactivity. Based on this measured value, a calculation was made using the following formula, and the promoting activity of arachidonic acid metabolite release was represented by % of control. The activity of the sample-adding group was calculated using a control value configured in each plate. % of control=[…]
X: The radioactivity in the sample-adding group
C: The means of the radioactivity in 4 wells of control (no sample) […]

[3] = test system: human colon cancer cell line LS 174T; assay: Growth of carcinomas of LS 174T in nude mice; assay type: in vivo, nude mice (BALB/cAnN-nu); conditions: osmotic pump 48 nmol/day for 14 days, 11th to 20th day, vs distilled water
Description: Effects on the growth of carcinomas by the human TGR23-2 ligand (1-20) in nude mice of human colon cancer cell line LS 174T were investigated.
The LS 174T dissolved in PBS (phosphate buffered saline) was subcutaneously administered at the ratio of 4×10^6 cells/200 μl/mouse to left abdominal of female nude mice (BALB/cAnN-nu, six weeks old). After three hours of administration, 100 μl of the human TGR23-2 ligand (1-20) dissolved in Otsuka distilled water at the concentration of 2 mM, or Otsuka distilled water was filled in the Micro-Osmotic Pump (alza, model 1002), and further embedded under the skin in the back of mouse under anesthesia (n=10 per each group). From this day, the human TGR23-2 ligand (1-20) was continuously released for 14 days at 48 nmol/day. From the third day of administration, dimensions of the carcinoma were measured, and carcinoma volume was calculated based on the formula: (major axis)×(minor axis)^2/2.

Sequence	enhancing activity of arachidonic acid metabolite release [1]	enhancing activity of arachidonic acid metabolite release [2]	carcinoma volume of LS 174T [3]
SFRNGVGSGVKKTSFRRA [rat TGR23-2 ligand (1-18), Ser-Phe-Arg-Asn-Gly-Val-Gly-Ser-Gly-Val-Lys-Lys-Thr-Ser-Phe-Arg-Arg-Ala]	enhance the arachidonic acid metabolite release	enhance the arachidonic acid metabolite release	–
SFRNGVGTGMKKTSFQRAKS [human TGR23-2 ligand (1-20)]	enhance the arachidonic acid metabolite release	enhance the arachidonic acid metabolite release	has a tendency to increase
